Patent US20250073255A1, “USE OF FA-TYPE LIPID COMPOUNDS IN PREPARATION OF NUCLEIC ACID DELIVERY REAGENT AND RELATED PRODUCT” (BEIJING BAISHIKANG PHARMACEUTICAL TECHNOLOGY (BSJPHARMA) …, priority 2021, published 2025)

System: C57BL/6 male mice
Assay: In vivo delivery study of lipid nucleic acid mixture (oral gavage, RT-qPCR of PGY-sRNA-26 in tissues)
Design: species or system mouse
Details: for overall delivery efficacy: delivering nucleic acids into each tissue and blood tested: 100 μg lipid:10 nmol PGY-sRNA-26, all tissues and blood tested; for oral delivery of single-stranded sRNA nucleic acids into mouse blood / oral delivery of single-stranded sRNA nucleic acids into mouse brain tissue / oral delivery of single-stranded sRNA nucleic acids into mouse femur / oral delivery of single-stranded sRNA nucleic acids into mouse heart tissue / oral delivery of single-stranded sRNA nucleic acids into mouse intestinal tissue / oral delivery of single-stranded sRNA nucleic acids into mouse kidney tissue / oral delivery of single-stranded sRNA nucleic acids into mouse liver tissue / oral delivery of single-stranded sRNA nucleic acids into mouse lung tissue / oral delivery of single-stranded sRNA nucleic acids into mouse spleen tissue / oral delivery of single-stranded sRNA nucleic acids into mouse stomach tissue: 100 μg lipid:10 nmol PGY-sRNA-26, sampled after 12 hours; for oral delivery of single-stranded sRNA nucleic acids into mouse heart tissue: vs free uptake group; for oral delivery of single-stranded sRNA nucleic acids into mouse intestinal tissue: intestine
Outline: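 Stem-loop RT and SYBR qPCR, normalized to U6, measured PGY-sRNA-26 in blood and organs 12 h after gavage. Dosing was 10 nmol sRNA with 100 μg lipid, pre-mixed and heated 15 min at 90 °C, in 12-h-fasted mice, against saline and free-sRNA groups.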

CCCCCCCCC(C)=O [Lipid 604, decan-2-one]
can effectively orally deliver: oral delivery of single-stranded sRNA nucleic acids into mouse blood | oral delivery of single-stranded sRNA nucleic acids into mouse brain tissue | oral delivery of single-stranded sRNA nucleic acids into mouse femur | oral delivery of single-stranded sRNA nucleic acids into mouse heart tissue | oral delivery of single-stranded sRNA nucleic acids into mouse intestinal tissue | oral delivery of single-stranded sRNA nucleic acids into mouse kidney tissue | oral delivery of single-stranded sRNA nucleic acids into mouse liver tissue | oral delivery of single-stranded sRNA nucleic acids into mouse lung tissue | oral delivery of single-stranded sRNA nucleic acids into mouse spleen tissue | oral delivery of single-stranded sRNA nucleic acids into mouse stomach tissue
best delivery efficacy: overall delivery efficacy: delivering nucleic acids into each tissue and blood tested

CCCCCCCCCCCCCCC(=O)O [Lipid 605, pentadecanoic acid]
can effectively orally deliver: oral delivery of single-stranded sRNA nucleic acids into mouse blood | oral delivery of single-stranded sRNA nucleic acids into mouse femur | oral delivery of single-stranded sRNA nucleic acids into mouse stomach tissue

C/C(=C\C(=O)O)C(=O)O [Lipid 606, (E)-2-methylbut-2-enedioic acid]
can effectively orally deliver: oral delivery of single-stranded sRNA nucleic acids into mouse blood | oral delivery of single-stranded sRNA nucleic acids into mouse femur | oral delivery of single-stranded sRNA nucleic acids into mouse liver tissue

O=C(O)C/C=C/CC(=O)O [Lipid 607, (E)-hex-3-enedioic acid]
can effectively orally deliver: oral delivery of single-stranded sRNA nucleic acids into mouse blood | oral delivery of single-stranded sRNA nucleic acids into mouse femur | oral delivery of single-stranded sRNA nucleic acids into mouse heart tissue | oral delivery of single-stranded sRNA nucleic acids into mouse kidney tissue | oral delivery of single-stranded sRNA nucleic acids into mouse liver tissue | oral delivery of single-stranded sRNA nucleic acids into mouse stomach tissue

CC(CC(=O)O)C(=O)O (stereo not shown) [Lipid 608, 2-methylbutanedioic acid]
can effectively orally deliver: oral delivery of single-stranded sRNA nucleic acids into mouse femur | oral delivery of single-stranded sRNA nucleic acids into mouse heart tissue | oral delivery of single-stranded sRNA nucleic acids into mouse lung tissue | oral delivery of single-stranded sRNA nucleic acids into mouse spleen tissue | oral delivery of single-stranded sRNA nucleic acids into mouse stomach tissue

CCCCCCCCCCCCCCCO [Lipid 609, pentadecan-1-ol]
can effectively orally deliver: oral delivery of single-stranded sRNA nucleic acids into mouse brain tissue | oral delivery of single-stranded sRNA nucleic acids into mouse femur | oral delivery of single-stranded sRNA nucleic acids into mouse heart tissue | oral delivery of single-stranded sRNA nucleic acids into mouse kidney tissue | oral delivery of single-stranded sRNA nucleic acids into mouse liver tissue | oral delivery of single-stranded sRNA nucleic acids into mouse lung tissue | oral delivery of single-stranded sRNA nucleic acids into mouse stomach tissue

CCCCC(N)=O [Lipid 610]
can effectively orally deliver: oral delivery of single-stranded sRNA nucleic acids into mouse femur | oral delivery of single-stranded sRNA nucleic acids into mouse kidney tissue | oral delivery of single-stranded sRNA nucleic acids into mouse lung tissue | oral delivery of single-stranded sRNA nucleic acids into mouse spleen tissue | oral delivery of single-stranded sRNA nucleic acids into mouse stomach tissue

CCCCCCCCCCCC(N)=O [Lipid 611, dodecanamide]
can effectively orally deliver: oral delivery of single-stranded sRNA nucleic acids into mouse femur | oral delivery of single-stranded sRNA nucleic acids into mouse spleen tissue | oral delivery of single-stranded sRNA nucleic acids into mouse stomach tissue

CC(=O)C1CCOC1=O (stereo not shown) [Lipid 612, 3-acetyloxolan-2-one]
can effectively orally deliver: oral delivery of single-stranded sRNA nucleic acids into mouse femur | oral delivery of single-stranded sRNA nucleic acids into mouse intestinal tissue | oral delivery of single-stranded sRNA nucleic acids into mouse liver tissue | oral delivery of single-stranded sRNA nucleic acids into mouse stomach tissue

CCCCCC(=O)OCCCC [Lipid 613, butyl hexanoate]
can effectively orally deliver: oral delivery of single-stranded sRNA nucleic acids into mouse blood | oral delivery of single-stranded sRNA nucleic acids into mouse brain tissue | oral delivery of single-stranded sRNA nucleic acids into mouse femur | oral delivery of single-stranded sRNA nucleic acids into mouse heart tissue | oral delivery of single-stranded sRNA nucleic acids into mouse intestinal tissue | oral delivery of single-stranded sRNA nucleic acids into mouse kidney tissue | oral delivery of single-stranded sRNA nucleic acids into mouse liver tissue | oral delivery of single-stranded sRNA nucleic acids into mouse lung tissue | oral delivery of single-stranded sRNA nucleic acids into mouse spleen tissue | oral delivery of single-stranded sRNA nucleic acids into mouse stomach tissue
best delivery efficacy: overall delivery efficacy: delivering nucleic acids into each tissue and blood tested

CCCCCCOC(=O)CCC [Lipid 614, hexyl butanoate]
can effectively orally deliver: oral delivery of single-stranded sRNA nucleic acids into mouse blood | oral delivery of single-stranded sRNA nucleic acids into mouse brain tissue | oral delivery of single-stranded sRNA nucleic acids into mouse femur | oral delivery of single-stranded sRNA nucleic acids into mouse heart tissue | oral delivery of single-stranded sRNA nucleic acids into mouse intestinal tissue | oral delivery of single-stranded sRNA nucleic acids into mouse liver tissue | oral delivery of single-stranded sRNA nucleic acids into mouse lung tissue | oral delivery of single-stranded sRNA nucleic acids into mouse spleen tissue

CCCCCCCCCC=O [Lipid 615]
can effectively orally deliver: oral delivery of single-stranded sRNA nucleic acids into mouse blood | oral delivery of single-stranded sRNA nucleic acids into mouse brain tissue | oral delivery of single-stranded sRNA nucleic acids into mouse femur | oral delivery of single-stranded sRNA nucleic acids into mouse intestinal tissue | oral delivery of single-stranded sRNA nucleic acids into mouse liver tissue | oral delivery of single-stranded sRNA nucleic acids into mouse lung tissue | oral delivery of single-stranded sRNA nucleic acids into mouse spleen tissue | oral delivery of single-stranded sRNA nucleic acids into mouse stomach tissue

CCCCCC1C(=O)CCC1CC(=O)O (stereo not shown) [Lipid 616, 2-(3-oxo-2-pentylcyclopentyl)-acetic acid]
can effectively orally deliver: oral delivery of single-stranded sRNA nucleic acids into mouse blood | oral delivery of single-stranded sRNA nucleic acids into mouse brain tissue | oral delivery of single-stranded sRNA nucleic acids into mouse femur | oral delivery of single-stranded sRNA nucleic acids into mouse heart tissue | oral delivery of single-stranded sRNA nucleic acids into mouse intestinal tissue | oral delivery of single-stranded sRNA nucleic acids into mouse liver tissue | oral delivery of single-stranded sRNA nucleic acids into mouse lung tissue | oral delivery of single-stranded sRNA nucleic acids into mouse spleen tissue

CCCCCCCCCOC(C)=O [Lipid 617, nonyl acetate]
can effectively orally deliver: oral delivery of single-stranded sRNA nucleic acids into mouse blood | oral delivery of single-stranded sRNA nucleic acids into mouse brain tissue | oral delivery of single-stranded sRNA nucleic acids into mouse femur | oral delivery of single-stranded sRNA nucleic acids into mouse intestinal tissue | oral delivery of single-stranded sRNA nucleic acids into mouse kidney tissue | oral delivery of single-stranded sRNA nucleic acids into mouse liver tissue | oral delivery of single-stranded sRNA nucleic acids into mouse lung tissue | oral delivery of single-stranded sRNA nucleic acids into mouse spleen tissue | oral delivery of single-stranded sRNA nucleic acids into mouse stomach tissue
